Common to all, as to format: in vivo
One assay relates to Pyricularia oryzae. The conditions noted are these: rice seedling, 6 days after inoculation.
In assay [1] the target is T1, tachykinin receptor (Cavia porcellus, UniProt P30547).
T1 construct: from tissue; host or cells: guinea pig trachea, in vivo
Put plainly: Tachykinin receptor antagonistic effect: capsaicin-induced increase in blood vessel permeability, trachea. The following applies: guinea pig, iv, read-out: ED50 Guinea pig trachea. How it is done:
(§1) The tachykinin receptor antagonistic effect of a compound according to the present invention was investigated by the method described below.
(§2) [Effect of compound on capsaicin-induced increase in blood vessel permeability]
(§3) 5 Minutes after giving Evans Blue (30 mg/kg, i.v.) to a guinea pig anesthetized with pentobarbital (30 mg/kg, i.p.), a test compound dissolved in […] was injected intravenously. After further 5 minutes, capsaicin (0.15 mg/kg, i.v.) was given to induce the plasma transudation. 5 Minutes after administration of capsaicin, the guinea pig was sacrificed to isolate the trachea and the urinary bladder. After extraction with formamide for 24 hours, the dye content in each tissue was quantified on the basis of the absorbance at 620 nm, and the amount of the dye transudated into the tissue was calculated from the calibration curve.
(§4) By the method described above, the amount of the compound required to obtain 50% suppression (ED50) was determined and represented in units (mg/kg).

The target in assay [2] is T1, tachykinin receptor. Put plainly: Tachykinin receptor antagonistic effect: capsaicin-induced increase in blood vessel permeability, urinary bladder. The conditions noted are these: guinea pig, iv, read-out: ED50 Guinea pig urinary bladder. As for the experimental part:
as §1, §2, §3, §4

T1 sequence (P30547 whole entry): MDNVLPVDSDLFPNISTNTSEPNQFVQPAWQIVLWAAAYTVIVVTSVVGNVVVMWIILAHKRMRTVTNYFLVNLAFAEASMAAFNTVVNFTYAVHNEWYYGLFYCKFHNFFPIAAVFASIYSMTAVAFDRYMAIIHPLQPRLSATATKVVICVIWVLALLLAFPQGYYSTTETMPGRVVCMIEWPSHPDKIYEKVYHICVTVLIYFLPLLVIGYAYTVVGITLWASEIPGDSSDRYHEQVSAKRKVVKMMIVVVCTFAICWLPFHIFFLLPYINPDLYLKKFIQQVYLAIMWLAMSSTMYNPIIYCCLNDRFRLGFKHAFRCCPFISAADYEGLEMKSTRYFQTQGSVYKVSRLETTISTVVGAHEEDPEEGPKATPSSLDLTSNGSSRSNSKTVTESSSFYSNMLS

Turning to `CON=C(C)C(=NOCc1ccccc1Cl)C(=O)N(C)C` [Compound C-11], the “Controlling effect on rice blight (Pyricularia oryzae) by foliage application at 500 ppm (% control)” value (shortened to “Controlling effect on rice blight … (% control)”) with Pyricularia oryzae stood at 90%.

With `C=CCON=C(C)C(=NOCc1ccccc1Cl)C(=O)N(C)C` [Compound C-86], the “Controlling effect on rice blight … (% control)” value with Pyricularia oryzae was found to be 90%.

As for `C=CCON=C(C)C(=NOCc1ccc(OC)cc1Cl)C(=O)N(C)C` [Compound C-95], the “Controlling effect on rice blight … (% control)” value in the assay on Pyricularia oryzae came out at 90%.

Consider `C=CCON=C(C)C(=NOCc1ccc(Cl)c(Cl)c1)C(=O)N(C)C` [Compound C-96], for which the “Controlling effect on rice blight … (% control)” value in the assay on Pyricularia oryzae was determined as 90%.

In the case of `CON=C(C)C(=NOCc1ccccc1Cl)C(=O)N1CCC(NC(C)=O)CC1` [Compound M-11], on tachykinin receptor [1], the ED50 is 0.024 mg/kg.

In the case of `C=CCON=C(C)C(=NOCc1ccccc1Cl)C(=O)N1CCC(NC(C)=O)CC1` [Compound M-86], at tachykinin receptor [1], the 50% effective dose (ED50) turned out to be 0.085 mg/kg.

Regarding `C=CCON=C(C)C(=NOCc1ccc(Cl)c(Cl)c1)C(=O)N1CCOCC1` [Compound W-96], the median effective dose (ED50) at tachykinin receptor [1] came out at 0.04 mg/kg.

As for `CON=C(C(=O)N1CCOCC1)C(C)=NOCc1ccccc1` [Compound W-176], the ED50 came out at 0.145 mg/kg on tachykinin receptor [1] and 0.075 mg/kg at tachykinin receptor [2].

Take `CON=C(C(=O)N1CCN(C)CC1)C(C)=NOCc1ccccc1Cl` [Compound b-251]: the ED50 on tachykinin receptor [1] and on tachykinin receptor [2] was 0.017 mg/kg in each case.

Take `O=C1OCc2c(Cl)c(Cl)c(Cl)c(Cl)c21` [Fthalide, reference compound]: the “Controlling effect on rice blight … (% control)” value with Pyricularia oryzae stood at 97%.

`C=CCON=C(C(=O)N1CCN(C)CC1)C(C)=NOCc1ccccc1` [b-180]: the values for the median effective dose (ED50) at tachykinin receptor [1] and at tachykinin receptor [2] were 0.054 mg/kg and 0.087 mg/kg, respectively.

The term ED50 denotes the dose that gives a 50% effect, or the effect in half of the subjects.

The record behind these values is patent US6251949A, “Oxime derivatives, hydrazone derivatives and use thereof” (Shionogi & Co., Ltd., priority 1996, dated 2001).
